Each structure is given as a SMILES string.

C-Raf FL, sequence (P04049 whole entry Y340E/Y341E): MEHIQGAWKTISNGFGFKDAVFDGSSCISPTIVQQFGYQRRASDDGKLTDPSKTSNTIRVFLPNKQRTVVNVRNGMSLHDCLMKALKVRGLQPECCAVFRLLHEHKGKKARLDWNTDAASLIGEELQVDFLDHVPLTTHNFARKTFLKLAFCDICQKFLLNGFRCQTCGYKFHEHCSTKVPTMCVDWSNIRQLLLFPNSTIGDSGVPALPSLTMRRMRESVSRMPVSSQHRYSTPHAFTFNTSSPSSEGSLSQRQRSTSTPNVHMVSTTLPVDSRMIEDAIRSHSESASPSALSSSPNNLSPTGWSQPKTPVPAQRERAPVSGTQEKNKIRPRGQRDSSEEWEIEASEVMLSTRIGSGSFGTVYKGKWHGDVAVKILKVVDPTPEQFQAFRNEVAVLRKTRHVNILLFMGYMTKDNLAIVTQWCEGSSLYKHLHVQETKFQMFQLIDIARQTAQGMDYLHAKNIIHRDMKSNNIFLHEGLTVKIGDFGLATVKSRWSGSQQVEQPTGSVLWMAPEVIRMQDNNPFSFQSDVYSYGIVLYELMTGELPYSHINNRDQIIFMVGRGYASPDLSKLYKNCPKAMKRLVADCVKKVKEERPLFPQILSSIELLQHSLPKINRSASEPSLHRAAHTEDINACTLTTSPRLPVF
C-Raf FL, sequence (P63104 whole entry partner): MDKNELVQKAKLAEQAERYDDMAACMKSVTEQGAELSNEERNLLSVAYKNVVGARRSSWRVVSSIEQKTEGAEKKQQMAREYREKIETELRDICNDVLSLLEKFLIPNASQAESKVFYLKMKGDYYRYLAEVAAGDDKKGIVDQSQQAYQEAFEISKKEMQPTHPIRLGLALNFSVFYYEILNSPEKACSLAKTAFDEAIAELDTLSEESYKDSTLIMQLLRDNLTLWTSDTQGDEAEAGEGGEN

The experiment has as its target C-Raf FL (Homo sapiens (Human), UniProt P04049, Y340E/Y341E). Nature of the experiment: In vitro Raf activity determination (Alpha Screen, phospho-MEK), C-Raf FL (full length, Y340E/Y341E). It counts as biochemical. The settings on record: ATP 1 μM; 60 min pre-incubation; 1 hour reaction; column head does not say FL or TR. The text has this: The activity of a compound according to the present invention can be assessed by well-known in vitro & in vivo methods. Raf inhibition data provided herein was obtained using the following procedures.
Sf9 cells co-expressing both proteins were lysed and subjected to immobilized nickel chromatography and eluted with Imidazole. A second column (StrepII binding column) was used and eluted with desthiobiotin. Protein Tags were removed using Prescission enzyme and the protein was further purified using a flowthrough step to remove tags.
C-Raf TR refers to a truncated C-Raf protein, a Δ1-324 deletion mutant. C-Raf FL refers to the full-length C-Raf protein.
Full length MEK1 with an inactivating K97R ATP binding site mutation is utilized as a RAF substrate. The MEK1 cDNA was subcloned with an N-terminal (his)6 tag into a vector for E. Coli expression. The MEK1 substrate was purified from E. Coli lysate by nickel affinity chromatography followed by anion exchange. The final MEK1 preparation was biotinylated (Pierce EZ-Link Sulfo-NHS-LC-Biotin) and concentrated.
Assay protocol: Raf and biotinylated Mek (kinase dead) were combined at 2× final concentrations in assay buffer (50 mM Tris, pH 7.5, 15 mM MgCl2, 0.01% BSA and 1 mM DTT) and dispensed […] per well in assay plates (Greiner white 384 well assay plates #781207) containing […] of 40× of a Raf kinase inhibitor test compound diluted in 100% DMSO. The plate was incubated for 60 minutes at room temperature. […] The reactions were stopped and the phosphorylated product was measured using a rabbit anti-p-MEK (Cell Signaling, #9121) antibody and the Alpha Screen IgG (ProteinA) detection Kit (PerkinElmer #6760617R), by the addition of […] to the well of a mixture of the antibody (1:2000 dilution) and detection beads (1:2000 dilution of both beads) in Stop/bead buffer (25 mM EDTA, 50 mM Tris, pH 7.5, 0.01% Tween20). The additions were carried out under dark conditions to protect the detection beads from light. A lid was placed on top of the plate and incubated for 1 hour at room temperature, after which the luminescence was read on a PerkinElmer Envision instrument. The concentration of each compound for 50% inhibition (IC50) was calculated by non-linear regression using XL Fit data analysis software.
Usually IC50 stands for the point on the concentration scale where inhibition reaches its midpoint. A lower IC50 goes with inhibition by little substance. `Cc1ccc(NC(=O)c2cc(C(F)(F)F)ccn2)cc1-c1cc2c(c(C3CCOCC3)c1)NC(=O)C(C)(CO)O2` (single isomer, unassigned) [Example 193, N-(3-(2-(hydroxymethyl)-2-methyl-3-oxo-5-(tetrahydro-2H-pyran-4-yl)-3,4-dihydro-2H-benzo [b][1,4]oxazin-7-yl)-4-methylphenyl)-4-(trifluoromethyl) picolinamide carboxamide]: half-maximal inhibition (IC50) was put at 0.02 nM.

Compound `Cc1ccc(NC(=O)c2cc(C(F)(F)F)ccn2)cc1-c1cc2c(c(C3CCOCC3)c1)NC(=O)C(C)(CO)O2` (single isomer, unassigned) [Example 194, N-(3-(2-(hydroxymethyl)-2-methyl-3-oxo-5-(tetrahydro-2H-pyran-4-yl)-3,4-dihydro-2H-benzo [b][1,4]oxazin-7-yl)-4-methylphenyl)-4-(trifluoromethyl) picolinamide carboxamide] displayed an IC50 of 0.07 nM.

In turn, `Cc1ccc(NC(=O)c2cc(C(F)(F)F)ccn2)cc1-c1cc(OCCO)nc(C2CCOCC2O)c1` (single isomer, unassigned) [Example 248] displayed an IC50 of 0.7 nM. This IC50 lies about 10-fold higher than the previous one.

In turn, `Cc1ccc(NC(=O)c2ccnc(C(F)(F)F)c2)cc1-c1cc(OCCO)nc(C2CCOCC2O)c1` (single isomer, unassigned) [Example 250] displayed an IC50 of 1 nM.

On to `Cc1ncc(NC(=O)c2ccnc(C(C)(C)F)c2)cc1-c1cccc(C2COC2)c1` [Example 1, 2-(2-fluoropropan-2-yl)-N-(6-methyl-5-(3-(oxetan-3-yl)phenyl)pyridin-3-yl)isonicotinamide], for which the IC50 is 1 nM.

For `Cc1ccc(NC(=O)c2cccc(C(F)(F)F)c2)cc1-c1cccc(C2COC2)c1` [Example 2, N-(6-methyl-3′-(oxetan-3-yl)-[1,1′-biphenyl]-3-yl)-3-(trifluoromethyl)benzamide], the IC50 worked out at 0.7 nM. This IC50 and that of the compound before are within 1.5-fold of each other.

In turn, `CCOc1ncc(-c2cc(NC(=O)c3ccnc(C(C)(C)F)c3)cnc2C)cc1C1(C)COC1` [Example 3, N-(6′-ethoxy-2-methyl-5′-(3-methyloxetan-3-yl)-[3,3′-bipyridin]-5-yl)-2-(2-fluoropropan-2-yl)isonicotinamide] yielded an IC50 of 0.5 nM. This IC50 and that of the compound before are within 1.5-fold of each other.

Compound `Cc1ccc(NC(=O)c2cccc(C(F)(F)F)c2)cc1-c1cn(C)c(=O)c(C2COC2)n1` [Example 4, N-(4-methyl-3-(4-methyl-6-(oxetan-3-yl)-5-oxo-4,5-dihydropyrazin-2-yl)phenyl)-3-(trifluoromethyl)benzamide] registered an IC50 of 3 nM. This IC50 is about 6-fold higher than that of the compound before.

For `Cc1ccc(NC(=O)c2ccc(CN)c(C(F)(F)F)c2)cc1-c1cccc(C2COC2)c1` [Example 5, 4-(aminomethyl)-N-(6-methyl-3′-(oxetan-3-yl)-[1,1′-biphenyl]-3-yl)-3-(trifluoromethyl)benzamide], half-maximal inhibition (IC50) was put at 2 nM. This IC50 is about 1.5-fold lower than that of the compound before.

The compound `Cc1ccc(NC(=O)c2cccc(C(F)(F)F)c2)cc1-c1cc(C2COC2)c2nccn2n1` [Example 6, N-(4-methyl-3-(8-(oxetan-3-yl)imidazo[1,2-b]pyridazin-6-yl)phenyl)-3-(trifluoromethyl)benzamide] had an IC50 of 0.3 nM. This IC50 lies about 6.7-fold lower than the previous one.

With `Cc1ncc(NC(=O)c2ccc(CO)c(C(F)(F)F)c2)cc1-c1cccc(C2COC2)c1` [Example 7], the IC50 was 1 nM.

`Cc1ncc(NC(=O)c2ccc(CN)c(C(F)(F)F)c2)cc1-c1cccc(C2(C)COC2)c1` [Example 8] returned an IC50 of 1 nM. This lies in the single-digit nanomolar range.

Take `Cc1ncc(NC(=O)c2cccc(C(F)(F)F)c2)cc1-c1cc(C2COC2)c2nccn2n1` [Example 9, N-(6-methyl-5-(8-(oxetan-3-yl)imidazo[1,2-b]pyridazin-6-yl)pyridin-3-yl)-3-(trifluoromethyl)benzamide]: half-maximal inhibition (IC50) required 0.3 nM.

Regarding `Cc1ncc(NC(=O)c2ccc(CN)c(C(F)(F)F)c2)cc1-c1cc(C2COC2)c2nccn2n1` [Example 10, 4-(aminomethyl)-N-(6-methyl-5-(8-(oxetan-3-yl)imidazo[1,2-b]pyridazin-6-yl)pyridin-3-yl)-3-(trifluoromethyl)benzamide], the IC50 turned out to be 2 nM. Against the preceding compound, the IC50 is about 6.7-fold higher.

`Cc1ncc(NC(=O)c2cccc(C(F)(F)F)c2)cc1-c1cc(C2(C)COC2)c(OC2CCOCC2)nn1` [Example 11] showed an IC50 of 0.6 nM.

In the case of `Cc1ccc(NC(=O)c2ccnc(C(C)(F)F)c2)cc1-c1cnc(-c2cn(C)nc2C)c(C2(O)COC2)c1` [Example 12, 2-(1,1-difluoroethyl)-N-(3-(6-(1,3-dimethyl-1H-pyrazol-4-yl)-5-(3-hydroxyoxetan-3-yl)pyridin-3-yl)-4-methylphenyl)isonicotinamide], the IC50 was found to be 2 nM.

Compound `Cc1ccc(NC(=O)c2ccnc(C(C)(F)F)c2)cc1-c1c[nH]c(=O)c(C2(O)COC2)c1` [Example 13, 2-(1,1-difluoroethyl)-N-(3-(5-(3-hydroxyoxetan-3-yl)-6-oxo-1,6-dihydropyridin-3-yl)-4-methylphenyl)isonicotinamide] registered an IC50 of 1 nM. Against the preceding compound, the IC50 is about 2-fold lower.

In turn, `Cc1ccc(NC(=O)c2ccnc(C(F)(F)F)c2)cc1-c1cc(C2(C)COC2)c(OCCO)nn1` [Example 14, N-(3-(6-(2-hydroxyethoxy)-5-(3-methyloxetan-3-yl)pyridazin-3-yl)-4-methylphenyl)-2-(trifluoromethyl)isonicotinamide] gave an IC50 of 0.2 nM. Against the preceding compound, the IC50 is about 5-fold lower.

Turning to `Cc1ncc(NC(=O)c2cccc(C(F)(F)F)c2)cc1-c1cc(C2(C)COC2)c(=O)[nH]n1` [Example 15, N-(6-methyl-5-(5-(3-methyloxetan-3-yl)-6-oxo-1,6-dihydropyridazin-3-yl)pyridin-3-yl)-3-(trifluoromethyl)benzamide], the IC50 amounted to 1 nM. Compared with the last compound, the IC50 is about 5-fold higher.

The compound `Cc1ncc(NC(=O)c2cccc(C(F)(F)F)c2)cc1-c1cc(C2(C)COC2)c(OCCO)nn1` [Example 16, N-(5-(6-(2-hydroxyethoxy)-5-(3-methyloxetan-3-yl)pyridazin-3-yl)-6-methylpyridin-3-yl)-3-(trifluoromethyl)benzamide] returned an IC50 of 0.4 nM.

Regarding `COc1ncc(-c2cc(C(=O)Nc3ccnc(C(F)(F)F)c3)ccc2C)cc1C1(O)COC1` [Example 17, 3-(5-(3-hydroxyoxetan-3-yl)-6-methoxypyridin-3-yl)-4-methyl-N-(2-(trifluoromethyl)pyridin-4-yl)benzamide], inhibition was half-maximal at 0.7 nM (IC50).

Consider `COc1ncc(-c2cc(C(=O)Nc3cccc(C(F)F)c3)ccc2C)cc1C1(O)COC1` [Example 18, N-(3-(difluoromethyl)phenyl)-3-(5-(3-hydroxyoxetan-3-yl)-6-methoxypyridin-3-yl)-4-methylbenzamide], for which the IC50 turned out to be 0.6 nM.

For the compound `COc1ncc(-c2cc(NC(=O)c3cc(C(F)(F)F)cc(C(C)(C)N)n3)ccc2C)cc1C1(O)COC1` [Example 19, 6-(2-aminopropan-2-yl)-N-(3-(5-(3-hydroxyoxetan-3-yl)-6-methoxypyridin-3-yl)-4-methylphenyl)-4-(trifluoromethyl)picolinamide], the IC50 amounted to 7 nM. Compared with the last compound, the IC50 is about 12-fold higher.

The compound `CCOc1ncc(-c2cc(NC(=O)c3ccnc(C(C)(C)F)c3)cnc2C)cc1C1(CF)COC1` [Example 32, N-(6′-ethoxy-5′-(3-(fluoromethyl)oxetan-3-yl)-2-methyl-[3,3′-bipyridin]-5-yl)-2-(2-fluoropropan-2-yl)isonicotinamide] showed a half-inhibitory concentration (IC50) of 0.3 nM.

In turn, `Cc1ncc(NC(=O)c2ccnc(C(C)(C)F)c2)cc1-c1cnc(OCCO)c(C2(F)COC2)c1` [Example 40, N-(5′-(3-fluorooxetan-3-yl)-6′-(2-hydroxyethoxy)-2-methyl-[3,3′-bipyridin]-5-yl)-2-(2-fluoropropan-2-yl)isonicotinamide] registered an IC50 of 3.47 nM.

Consider `Cc1ccc(NC(=O)c2ccnc(C(C)(C)F)c2)cc1-c1cnc(OCCO)c(C2(F)COC2)c1` [Example 41, N-(3-(5-(3-fluorooxetan-3-yl)-6-(2-hydroxyethoxy)pyridin-3-yl)-4-methylphenyl)-2-(2-fluoropropan-2-yl)isonicotinamide], for which the IC50 was 0.245 nM.

As for `Cc1ncc(NC(=O)c2cccc(C(F)(F)F)c2)cc1-c1cc(C2(F)COC2)c(=O)n(CCO)c1` [Example 46, N-(5′-(3-fluorooxetan-3-yl)-1′-(2-hydroxyethyl)-2-methyl-6′-oxo-1′,6′-dihydro-[3,3′-bipyridin]-5-yl)-3-(trifluoromethyl)benzamide], the IC50 was 51.5 nM.

Compound `Cc1ccc(NC(=O)c2ccnc(C(F)(F)F)c2)cc1-c1cc(C2(F)COC2)cc(OCCO)n1` [Example 47, N-(3-(4-(3-fluorooxetan-3-yl)-6-(2-hydroxyethoxy)pyridin-2-yl)-4-methylphenyl)-2-(trifluoromethyl)isonicotin-amide] had an IC50 of 4.35 nM.

Turning to `Cc1ncc(NC(=O)c2ccnc(C(C)(C)F)c2)cc1-c1cc(C2(F)COC2)cc(OCCO)n1` [Example 48], half-maximal inhibition (IC50) required 7.53 nM.

The record behind these values is patent US10167279B2 (NOVARTIS AG, priority 2014, dated 2019).
